Laboratory results taken from BindingDB's records for doi:10.1016/j.bmcl.2010.04.069 (Boehringer Ingelheim Pharmaceuticals, 2010).

Assay: Inhibition of CDC42

SMILES: O=C(Nc1cc2cc[nH]c(=O)c2cc1Cl)[C@@H]1CNC[C@H]1c1ccc(Cl)cc1 [(3S,4R)-N-(7-chloro-1-oxo-1,2-dihydroisoquinolin-6-yl)-4-(4-chlorophenyl)pyrrolidine-3-carboxamide]
- IC50: 54 nM
